The values that follow come from PMC2972222, “Breast Cancer Stem-Like Cells Are Inhibited by a Non-Toxic Aryl Hydrocarbon Receptor Agonist” (PLoS ONE, 2010).

Structures are written as SMILES.

The target in assay [1] is T1, aryl hydrocarbon receptor (AHR) (Mus musculus, UniProt P30561).
T1 construct: native AHR from mouse liver cytosol, immobilized on plate with anti-AHR antibody
T1 sequence (P30561 10-848): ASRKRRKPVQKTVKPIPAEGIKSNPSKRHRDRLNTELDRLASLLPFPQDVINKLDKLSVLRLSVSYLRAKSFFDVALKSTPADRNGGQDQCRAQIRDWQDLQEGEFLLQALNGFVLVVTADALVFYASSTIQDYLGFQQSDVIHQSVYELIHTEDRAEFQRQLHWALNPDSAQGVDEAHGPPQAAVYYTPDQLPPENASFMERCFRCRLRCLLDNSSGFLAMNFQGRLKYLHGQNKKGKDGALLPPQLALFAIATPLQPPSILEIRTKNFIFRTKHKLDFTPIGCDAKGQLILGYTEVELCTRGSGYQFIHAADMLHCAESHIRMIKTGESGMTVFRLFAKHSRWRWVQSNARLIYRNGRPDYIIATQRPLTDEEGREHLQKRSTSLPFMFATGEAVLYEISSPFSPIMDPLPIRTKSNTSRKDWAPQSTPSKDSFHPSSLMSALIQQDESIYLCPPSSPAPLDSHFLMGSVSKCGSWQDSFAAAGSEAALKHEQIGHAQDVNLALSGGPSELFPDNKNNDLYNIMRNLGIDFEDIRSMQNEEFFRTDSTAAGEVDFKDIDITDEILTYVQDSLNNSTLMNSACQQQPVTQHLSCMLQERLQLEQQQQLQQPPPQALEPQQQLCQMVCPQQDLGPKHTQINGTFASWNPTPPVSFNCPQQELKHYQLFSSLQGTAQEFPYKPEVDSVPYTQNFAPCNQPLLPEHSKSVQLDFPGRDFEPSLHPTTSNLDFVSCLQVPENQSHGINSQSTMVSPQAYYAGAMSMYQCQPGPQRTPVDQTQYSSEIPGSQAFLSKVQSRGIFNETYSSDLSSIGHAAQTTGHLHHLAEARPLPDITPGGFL
Put plainly: competition radioligand binding, unlabeled 3-MC versus [3-H]-3-MC on antibody-immobilized AHR. The text has this: competition radioligand binding, unlabeled 3-MC versus [3-H]-3-MC on antibody-immobilized AHR on aryl hydrocarbon receptor (AHR) | Competition of tranilast or unlabeled 3-MC with [3-H]-3-MC for binding to plate-immobilized AHR from mouse liver cytosol

Assay [2] deals with T1, aryl hydrocarbon receptor (AHR). In words: competition radioligand binding with [3-H]-3-MC on antibody-immobilized AHR.

In assay [1], `Cc1ccc2cc3c(ccc4ccccc43)c3c2c1CC3` [3-methylcholanthrene] registered an inhibition constant (Ki) of 0.035 µM.

With `COc1ccc(/C=C/C(=O)Nc2ccccc2C(=O)O)cc1OC` [tranilast, N-[3,4-dimethoxycinnamoyl]anthranilic acid], affinity in assay [2] was put at a Ki of 44 µM. This lies in the double-digit micromolar range.

One may read the Ki as the dissociation constant of the complex between target and ligand, obtained from inhibition or displacement. Low readings indicate tighter binding, high ones weaker binding.
